Data from BindingDB's records for PubMed 35766919 (Zhejiang University, 2022).

Target: Maltase-glucoamylase (Homo sapiens, UniProt O43451)
Experiment: Inhibition of alpha-glucosidase (unknown origin) using p-nitrophenyl-alpha-D-glucopyranoside as substrate incubated for 10 mins followed by substrate addition and measured after 15 mins by microplate reader analysis

Sequence of Maltase-glucoamylase (O43451 whole entry): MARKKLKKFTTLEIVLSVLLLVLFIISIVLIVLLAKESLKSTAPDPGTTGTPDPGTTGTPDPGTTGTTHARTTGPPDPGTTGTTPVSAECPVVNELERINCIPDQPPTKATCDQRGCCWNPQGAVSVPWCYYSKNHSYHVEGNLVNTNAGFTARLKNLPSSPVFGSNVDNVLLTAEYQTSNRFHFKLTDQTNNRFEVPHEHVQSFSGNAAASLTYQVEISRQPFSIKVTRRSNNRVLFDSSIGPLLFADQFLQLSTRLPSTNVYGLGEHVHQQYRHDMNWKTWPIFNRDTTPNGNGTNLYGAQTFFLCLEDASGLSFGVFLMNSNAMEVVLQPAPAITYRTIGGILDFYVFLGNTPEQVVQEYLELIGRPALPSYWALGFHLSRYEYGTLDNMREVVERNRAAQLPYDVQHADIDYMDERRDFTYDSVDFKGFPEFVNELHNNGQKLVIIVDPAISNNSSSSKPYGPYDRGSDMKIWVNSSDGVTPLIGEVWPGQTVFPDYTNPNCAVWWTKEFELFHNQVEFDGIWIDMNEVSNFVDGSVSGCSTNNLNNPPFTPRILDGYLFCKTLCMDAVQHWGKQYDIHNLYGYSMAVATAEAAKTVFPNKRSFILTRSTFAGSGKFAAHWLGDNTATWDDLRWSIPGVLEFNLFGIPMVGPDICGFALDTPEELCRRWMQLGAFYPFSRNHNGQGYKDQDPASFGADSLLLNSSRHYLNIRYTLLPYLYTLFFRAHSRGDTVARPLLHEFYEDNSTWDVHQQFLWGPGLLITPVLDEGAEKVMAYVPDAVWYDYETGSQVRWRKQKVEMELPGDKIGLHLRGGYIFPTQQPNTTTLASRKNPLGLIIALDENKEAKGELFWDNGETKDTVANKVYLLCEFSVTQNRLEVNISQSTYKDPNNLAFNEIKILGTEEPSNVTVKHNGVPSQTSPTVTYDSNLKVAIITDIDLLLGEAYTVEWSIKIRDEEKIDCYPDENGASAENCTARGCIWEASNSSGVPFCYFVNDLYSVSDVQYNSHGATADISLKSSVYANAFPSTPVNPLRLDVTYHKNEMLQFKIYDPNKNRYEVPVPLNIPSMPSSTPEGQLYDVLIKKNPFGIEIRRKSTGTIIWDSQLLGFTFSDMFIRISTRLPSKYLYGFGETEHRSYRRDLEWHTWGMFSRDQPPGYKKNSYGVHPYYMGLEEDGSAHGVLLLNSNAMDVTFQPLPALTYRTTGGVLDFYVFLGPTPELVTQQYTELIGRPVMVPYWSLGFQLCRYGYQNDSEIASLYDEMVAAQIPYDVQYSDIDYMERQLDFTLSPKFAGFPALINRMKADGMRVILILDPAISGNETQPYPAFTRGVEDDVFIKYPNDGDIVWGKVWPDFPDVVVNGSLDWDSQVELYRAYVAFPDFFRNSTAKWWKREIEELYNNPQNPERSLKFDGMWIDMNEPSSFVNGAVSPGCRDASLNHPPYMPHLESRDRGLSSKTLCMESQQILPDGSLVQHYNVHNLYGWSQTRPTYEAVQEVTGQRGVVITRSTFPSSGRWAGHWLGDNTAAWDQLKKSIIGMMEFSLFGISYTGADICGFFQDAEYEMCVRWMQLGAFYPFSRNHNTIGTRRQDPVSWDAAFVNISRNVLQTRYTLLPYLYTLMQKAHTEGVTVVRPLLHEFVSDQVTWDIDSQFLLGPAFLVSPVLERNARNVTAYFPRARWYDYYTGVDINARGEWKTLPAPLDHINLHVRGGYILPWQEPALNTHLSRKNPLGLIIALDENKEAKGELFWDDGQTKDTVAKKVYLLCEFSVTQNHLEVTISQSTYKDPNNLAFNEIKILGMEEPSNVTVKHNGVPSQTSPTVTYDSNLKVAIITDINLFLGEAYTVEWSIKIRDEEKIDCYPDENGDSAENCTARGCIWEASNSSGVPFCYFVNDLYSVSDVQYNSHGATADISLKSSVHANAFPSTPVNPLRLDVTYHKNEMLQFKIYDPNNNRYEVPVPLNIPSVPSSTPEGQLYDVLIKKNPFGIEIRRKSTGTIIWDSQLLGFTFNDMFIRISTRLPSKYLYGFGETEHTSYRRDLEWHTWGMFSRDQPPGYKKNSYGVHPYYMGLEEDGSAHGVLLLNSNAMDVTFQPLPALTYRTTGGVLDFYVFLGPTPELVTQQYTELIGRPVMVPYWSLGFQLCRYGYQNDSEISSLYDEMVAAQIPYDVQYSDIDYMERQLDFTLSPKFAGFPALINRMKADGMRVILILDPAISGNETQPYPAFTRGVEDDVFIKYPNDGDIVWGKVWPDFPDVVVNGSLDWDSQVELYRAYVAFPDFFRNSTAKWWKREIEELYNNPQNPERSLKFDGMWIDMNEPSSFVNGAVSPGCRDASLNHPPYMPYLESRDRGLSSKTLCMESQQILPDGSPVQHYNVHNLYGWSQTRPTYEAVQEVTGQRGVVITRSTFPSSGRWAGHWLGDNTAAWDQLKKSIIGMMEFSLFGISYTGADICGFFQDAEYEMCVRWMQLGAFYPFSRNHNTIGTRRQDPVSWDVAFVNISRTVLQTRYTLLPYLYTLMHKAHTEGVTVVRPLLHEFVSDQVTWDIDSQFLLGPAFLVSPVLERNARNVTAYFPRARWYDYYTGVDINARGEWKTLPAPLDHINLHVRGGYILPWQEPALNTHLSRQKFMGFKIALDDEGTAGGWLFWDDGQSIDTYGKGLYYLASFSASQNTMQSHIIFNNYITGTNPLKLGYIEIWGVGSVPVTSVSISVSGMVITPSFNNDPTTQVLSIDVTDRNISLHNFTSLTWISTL

Structure (SMILES) | IC50 [nM]
Cc1cc(O)c2c(c1)-c1c(-c3ccc(O)cc3)c(=O)oc3c1c-2c(O)c1cccc(O)c13 | 890
Cc1cc(O)c2c(c1)-c1c(-c3c[nH]c4ccccc34)c(=O)oc3c1c-2c(O)c1cccc(O)c13 | 1580
